pIC50: −log10 of the molar value. ≈ marks a conversion by molar mass, not a printed value. Like-named read-outs stand apart in the source and are kept apart here.
Tests used:
[1] = biological target: p38 MAPKα (Homo sapiens (Human), UniProt Q16539); test: p38 MAPKα enzyme inhibition (FRET, Z-LYTE; Method 2); assay type: biochemical
Description: (§1) The enzyme inhibitory activities of compounds disclosed herein are determined by FRET using synthetic peptides labelled with both donor and acceptor fluorophores (Z-LYTE, Invitrogen Ltd., Paisley, UK).
The inhibitory activities of test compounds against the p38 MAPKα isoform (MAPK14: Invitrogen) are evaluated indirectly by determining the level of activation/phosphorylation of the down-stream molecule, MAPKAP-K2. The p38 MAPKα protein (80 ng/mL, 2.5 μL) is mixed with the test compound (2.5 μL of either 4 μg/mL, 0.4 μg/mL, 0.04 μg/mL or 0.004 μg/mL) for 2 hr at RT. […] The mixture is incubated for 1 hr at RT. Development reagent (protease, 5 μL) is added for 1 hr prior to detection in a fluorescence microplate reader (Varioskan® Flash, ThermoFisher Scientific).
This method follows the same steps as Method 1 above, but utilises a higher concentration of the p38 MAPKα protein (2.5 μL of 200 ng/mL protein instead of 2.5 μL of 80 ng/mL protein) for mixing with the test compound (tested at either 1 μg/mL, 0.1 μg/mL, 0.01 μg/mL or 0.001 μg/mL).
(§2) In all cases, the site-specific protease cleaves non-phosphorylated peptide only and eliminates the FRET signal. Phosphorylation levels of each reaction are calculated using the ratio of coumarin emission (donor) over fluorescein emission (acceptor), for which high ratios indicate high phosphorylation and low ratios indicate low phosphorylation levels. […]

[2] = biological target: c-Src (Homo sapiens (Human), UniProt P12931); test: c-Src enzyme inhibition (FRET, Z-LYTE); assay type: biochemical
Description: as §1
(§3) The inhibitory activities of compounds of the invention against c-Src and Syk enzymes (Invitrogen), are evaluated in a similar fashion to that described hereinabove. The relevant enzyme (3000 ng/mL or 2000 ng/mL respectively, 2.5 μL) is incubated with the test compound (either 1 μg/mL, 0.1 μg/mL, 0.01 μg/mL, or 0.001 μg/mL, 2.5 μL each) for 2 hr at RT. The FRET peptides (8 μM. 2.5 μL), and appropriate ATP solutions (2.5 μL, 800 μM for c-Src, and 60 μM ATP for Syk) are then added to the enzymes/compound mixtures and the mixture incubated for 1 hr. Development reagent (protease, 5 μL) is added for 1 hr prior to detection in a fluorescence microplate reader (Varioskan® Flash, ThermoFisher Scientific).
as §2

[3] = biological target: Syk (Homo sapiens (Human), UniProt P43405); test: Syk enzyme inhibition (FRET, Z-LYTE); assay type: biochemical
Description: as §1, §3, §2

[4] = tested on: IL-8 release in PBMCs; test: LPS-induced IL-8 release in PBMC cells (assay (b)); assay type: cell-based; details: Homo sapiens, LPS-stimulated PBMCs
Excerpt: Peripheral blood mononuclear cells (PBMCs) from healthy subjects are separated from whole blood using a density gradient (Lymphoprep, Axis-Shield Healthcare). […] The supernatant is harvested for determination of IL-8 and TNFα concentrations by sandwich ELISA (Duo-set, R&D systems) and read on the fluorescence microplate reader (Varioskan® Flash, ThermoFisher Scientific).

[5] = tested on: IFN gamma release in PBMCs; test: IFN gamma release in CD3/CD28 stimulated PBMC cells (assay (c)); assay type: cell-based; details: Homo sapiens, read-out: IC50 Values in PBMCs IFNγ
Description: PBMCs from healthy subjects are separated from whole blood using a density gradient (Lymphoprep, Axis-Shield Healthcare). Cells are added to a 96 well plate pre-coated with a mixture of CD3/CD28 monoclonal antibodies (0.3 μg/mL eBioscience and 3 μg/mL BD Pharmingen respectively). Compound at the desired concentration is then added to the wells and the plate left for 3 days under normal tissue culture conditions. Supernatants are harvested and IL-2 and IFN gamma release determined by Sandwich ELISA (Duo-set, R&D System). The IC50 is determined from the dose response curve.

[6] = tested on: Jurkat cells; test: Cell cytotoxicity assay, Jurkat cell viability (assay (r)); assay type: cell-based, human; details: 24 hours
Description: 1×10^5 Jurkat cells (immortalised human T lymphocytes) are added to the appropriate number of wells of a 96 well plate in 100 μL of media (RPMI supplemented with 10% foetal bovine serum). 1 μL of DMSO control (final concentration 1.0% v/v) or test compound (final concentration 20, 5 or 1 μg/mL) is added to the wells and incubated at 37° C., 5% CO2. After 24 hours, the plate is centrifuged at 1200 rpm for 3 minutes and the supernatant discarded. Cells are then resuspended in 150 μL (final concentration 7.5 μg/mL) of propidium iodide (PI) in PBS and incubated at 37° C., 5% CO2 for 15 minutes. After 15 minutes, cells are analysed by flow cytometry (BD accuri) using the FL3 window. The % viability is calculated as the % of cells that are P negative in the test wells normalised to the DMSO control.

[7] = Solubility in fasted-state simulated colonic fluid (FaSSCoF) at pH 6.5; assay type: physicochemical; details: fasted-state simulated colonic fluid (FaSSCoF), 25 °C, pH 6.5, fassgf or other biorelevant, thermodynamic from solid, pH 6.5, 25° C.
Description: The solubilities of compounds of the invention in FaSSCoF at pH 6.5 are determined using a modification of a previously-reported procedure (Vertzoni, M., et al. Pharm. Res. 2010, 27, 2187-2196). In place of the bile salt extract employed in the original procedure (which extract is no longer available), the modified procedure uses a mixture of sodium taurocholate (0.15 g), glycocholic acid (0.15 g), ursodeoxycholic acid (0.05 g), cholic acid (0.05 g), and glycodeoxycholic acid (0.05 g). These five bile acids are ground together with a mortar and pestle to produce a fine white powder that is incorporated into the FaSSCoF, as outlined below.
FaSSCoF medium: Tris(hydroxymethyl)aminomethane (Tris; 0.275 g) and maleic acid (0.44 g) are dissolved in water (35 mL) to give a solution whose pH is adjusted to 6.5 by treatment with 0.5M NaOH (ca. 12 mL). The solution is then made up to 50 mL with water. A portion of this Tris/maleate buffer solution (ca. 25 mL) is added to a 0.5 L round-bottomed flask, before being treated with 0.00565 g of the bile acid mixture described above. Solutions of phosphatidylcholine (0.0111 g) in DCM (0.15 mL) and palmitic acid (0.0013 g) in DCM (0.15 mL) are added, then the organic solvent is evaporated off under reduced pressure at 40° C. until a clear solution, with no perceptible DCM odour, is achieved. The volume of the evaporated solution is adjusted to 50 mL by addition of the remainder of Tris/maleate buffer, then BSA (0.115 g) is added, before being dissolved by gentle agitation.
Solubility Determination: Test compounds are suspended in the pH 6.5 FaSSCoF medium to give a maximum final concentration of 2-10 mg/mL. The suspensions are equilibrated at 25° C. for 24 h, before being filtered through a glass fibre C filter. The filtrates are then diluted as appropriate for injection and quantification by HPLC with reference to a standard. Different volumes of the standard, diluted and undiluted sample solutions are injected and the solubilities are calculated using the peak areas determined by integration of the peak found at the same retention time as the principal peak in the standard injection.

[8] = Solubility and dissolution rate in phosphate-buffered saline (further studies); assay type: physicochemical; details: pH 6.5 with 0.5% by weight of simulated intestinal fluid or pH 7.2
[9] = Run 1, read-out: pH 6.5 FaSSCoF Solubility Run 1
[10] = Run 2, read-out: pH 6.5 FaSSCoF Solubility Run 2

Chain of c-Src (P12931 whole entry, looked up): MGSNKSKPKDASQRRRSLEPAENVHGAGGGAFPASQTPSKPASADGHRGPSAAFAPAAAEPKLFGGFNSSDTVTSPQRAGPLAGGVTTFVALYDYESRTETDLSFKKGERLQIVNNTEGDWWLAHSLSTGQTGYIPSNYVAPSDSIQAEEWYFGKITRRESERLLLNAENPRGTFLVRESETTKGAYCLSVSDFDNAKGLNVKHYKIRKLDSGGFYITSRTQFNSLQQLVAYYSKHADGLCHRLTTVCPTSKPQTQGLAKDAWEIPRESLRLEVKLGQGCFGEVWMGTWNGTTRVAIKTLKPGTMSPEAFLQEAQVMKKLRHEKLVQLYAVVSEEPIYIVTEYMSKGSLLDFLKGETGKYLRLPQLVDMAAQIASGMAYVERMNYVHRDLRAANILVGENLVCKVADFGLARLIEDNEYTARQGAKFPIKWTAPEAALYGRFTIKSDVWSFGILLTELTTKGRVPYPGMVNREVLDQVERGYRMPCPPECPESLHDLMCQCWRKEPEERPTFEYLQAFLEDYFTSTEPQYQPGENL
Chain of p38 MAPKα (Q16539 whole entry): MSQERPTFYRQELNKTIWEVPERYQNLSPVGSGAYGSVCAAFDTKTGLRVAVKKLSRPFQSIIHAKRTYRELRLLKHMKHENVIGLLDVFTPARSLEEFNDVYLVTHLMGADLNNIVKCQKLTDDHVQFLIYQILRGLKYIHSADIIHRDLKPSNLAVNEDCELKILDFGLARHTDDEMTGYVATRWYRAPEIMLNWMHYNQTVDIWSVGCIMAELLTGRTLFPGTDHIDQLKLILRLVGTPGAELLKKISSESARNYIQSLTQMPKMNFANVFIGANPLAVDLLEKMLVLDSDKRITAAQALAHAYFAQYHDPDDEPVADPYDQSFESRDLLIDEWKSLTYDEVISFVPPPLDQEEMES

Row | Compound | pIC50 [1] | pIC50 [2] | pIC50 [3] | pIC50 [4] | pIC50 [5] | % Viability at 1 μg/mL [6] [%] | % Viability at 5 μg/mL [6] [%] | % Viability at 20 μg/mL [6] [%] | solubility thermodynamic at 24 h [7, 9] [µg/mL] | solubility thermodynamic at 24 h [7, 10] [µg/mL] | Dissolution rate relative to Reference Compounds A (hydrochloride salt) and B [8] | Solubility relative to Reference Compounds A (hydrochloride salt) and B [8]
1 | COc1cc(Nc2nccc(Oc3ccc(NC(=O)Nc4cc(C(C)(C)C)cc(NS(C)(=O)=O)c4OC)c4ccccc34)n2)cc(OCCOCCOCC(=O)O)c1 [Example 2, 2-(2-(2-(3-((4-((4-(3-(5-(tert-Butyl)-2-methoxy-3-(methylsulfonamido)phenyl)ureido)-naphthalen-1-yl)oxy)pyrimidin-2-yl)amino)-5-methoxyphenoxy)ethoxy)ethoxy)acetic acid] | 7.64 | 7.85 | 8.10 | 7.61 | 7.40 | 99 | 99 | 97 | 90 (≈ 110 µM) | 60 (≈ 73.3 µM) |  | 
2 | COc1cc(Nc2cc(Oc3ccc(NC(=O)Nc4cc(C(C)(C)C)cc(NS(C)(=O)=O)c4OC)c4ccccc34)ccn2)cc(OCCOCCOCC(=O)[O-])c1.[Na+] [Example 31, 2-(2-(2-(3-((4-((4-(3-(5-(tert-Butyl)-2-methoxy-3-(methylsulfonamido)phenyl)ureido)-naphthalen-1-yl)oxy)pyridin-2-yl)amino)-5-methoxyphenoxy)ethoxy)ethoxy)acetic acid, sodium salt] |  |  |  |  |  |  |  |  | 1900 | 2100 | faster dissolution rate | more soluble than
3 | COCC(=O)Nc1cc(Oc2ccc(NC(=O)Nc3cc(C(C)(C)C)nn3-c3ccc(C)cc3)c3ccccc23)ccn1 [Reference compound, N-(4-(4-(3-(3-tert-butyl-1-p-tolyl-1H-pyrazol-5-yl)ureido)naphthalen-1-yloxy)pyridin-2-yl)-2-methoxyacetamide, reference compound] |  |  |  |  |  | 29 | 26 | 24 |  |  |  | 

— patent US10072034B2, “Kinase inhibitors” (Respivert Limited, priority 2016, dated 2018)
